Measured values published in publication PMC8132114 (ACS combinatorial science, 2019).
*1 amine or outer side, *2 acyl side, *3 side chain or, on linkers, in order; H or OH if unused. Where a SMILES comes first, the peptide text is derived from it. [ ]: non-standard residue; d: D form. The star is where a group is joined. X1 = O=C([C@H](CCON=Cc1c(Cl)cncc1Cl)N[*:1])[*:2]; Biotin = O=C1N[C@H]2[C@H](CS[C@H]2CCCCC(=O)*)N1; pY = N[C@@H](Cc1ccc(OP(=O)(O)O)cc1)C(=O)O; Ahx = NCCCCCC(=O)O

Key:
[1] = test system: VH1; assay type: biochemical
[2] = test system: VH1; assay type: biochemical; remark: listed apart in the source
[3] = target: oxime-containing phosphopeptide 6f-w202; test: SPR
[4] = target: oxime-containing phosphopeptide 6f-w99; test: SPR

CC(C)[C@H](NC(=O)CCCCCNC(=O)CCCC[C@@H]1SC[C@@H]2NC(=O)N[C@@H]21)C(=O)N[C@@H](CC(=O)O)C(=O)N[C@@H](C)C(=O)N[C@@H](CC(=O)O)C(=O)N[C@@H](CCC(=O)O)C(=O)N[C@@H](Cc1ccc(OP(=O)(O)O)cc1)C(=O)N[C@@H](CCON=Cc1c(Cl)cncc1Cl)C(N)=O [Peptide 6f-w202] ({Biotin-Ahx}-VDADE[pY][X1]-NH2)
percent dephosphorylation [1]: 43%

Ac-OtGGOt-NH2 [Peptide 15]
inhibition, VH1 compared with DUSP14 [2]: greater for VH1 than for DUSP14

B1: human DUSP14 C111S substrate-trapping mutant, O95147 1-198 (enzyme)
chain: MSSRGHSTLPRTLMAPRMISEGDIGGIAQITSSLFLGRGSVASNRHLLQARGITCIVNATIEIPNFNWPQFEYVKVPLADMPHAPIGLYFDTVADKIHSVSRKHGATLVHSAAGVSRSATLCIAYLMKFHNVCLLEAYNWVKARRPVIRPNVGFWRQLIDYERQLFGKSTVKMVQTPYGIVPDVYEKESRHLMPYWGI
Kd [3]: 640 nM | Kd [4]: 94 nM
